Source: patent US20090227799A1 (priority 2004, published 2009)
Converted amounts (≈) assume the structure as drawn.

What follows are molecules tested on opfGWT1 expressing yeast (assay: Measurement of antimalarial agent activity using opfGWT1-expressing yeast (growth inhibition, MIC)). Details: Saccharomyces cerevisiae, 48 h, read-out: MIC (μg/m1) opfGWT1 […]; minimum concentration at which turbidity (660 nm) was 0.1 or less; SD culture medium, 96 well plate, 30° C. for 2 days; final highest concentration 25 μg/ml.
Assay type: cell-based
Description: Compounds having antimalarial activity were screened, using the opfGWT1 expressing yeast, which expresses the malaria protozoa GWT1 gene. The opfGWT1 expressing yeast was prepared according to the methods described in Example 1 to Example 3 of WO 2004/048567.
The test compound was serially diluted twice in SD culture medium (Sabouraud-dextrose culture medium) so that the final highest concentration was 25 μg/ml and dispensed into a 96 well plate so as to obtain 50 μl/well. An overnight culture solution of the opfGWT1 expressing yeast diluted to 1/1000 was added therein in the amount of 50 μl/well addition, the plate was incubated at 30° C. for 2 days, then turbidity at 660 nm was measured.
Work on Nc1ccc(C(=O)NCc2ccc(OCc3cccc(Cl)c3)cc2)c(N)n1 [Reference Example A-173, 2,6-Diamino-N-(4-(3-chloro-benzyloxy)-benzyl)-nicotinamide] yielded an MIC of 12.5 µg/mL (≈ 32.6 µM). For Nc1nc(CCF)ccc1C(=O)NCc1ccc(Oc2ccccc2)s1 [Reference Example A-177, 2-Amino-6-(2-fluoro-ethyl)-N-(5-phenoxy-thiophen-2-ylmethyl)-nicotinamide], the MIC was 25 µg/mL (≈ 67.3 µM). CCCCOCc1ccc(CNC(=O)c2ccc(COC)nc2N)cc1 [Reference Example A-182] showed an MIC of 6.25 µg/mL (≈ 17.5 µM). For O=C(NCc1ccc(Oc2cccc(F)c2)s1)c1ccc2ncccc2c1 [Reference Example E-65, Quinoline-6-carboxylic acid (5-(3-fluorophenoxy)thiophen-2-ylmethyl)amide], the MIC was 25 µg/mL (≈ 66.1 µM). Nc1ncccc1C(=O)NCc1ccc(Oc2cccc(F)c2)s1 [Reference Example A-68, 2-Amino-N-(5-(3-fluoro-phenoxy)-thiophen-2-ylmethyl)-nicotinamide] was tested, and the MIC was 12.5 µg/mL (≈ 36.4 µM). C=Cc1ccc(C(=O)NCc2ccc(Oc3ccccc3)s2)c(N)n1 [Reference Example A-168, 2-Amino-N-(5-phenoxy-thiophen-2-ylmethyl)-6-vinyl-nicotinamide] gave an MIC of 12.5 µg/mL (≈ 35.6 µM). Nc1ncccc1C(=O)NCc1ccc(Cc2cccc(Cl)c2)s1 showed an MIC of 12.5 µg/mL (≈ 34.9 µM). Nc1ncccc1C(=O)NCc1ccc(Oc2ccc(F)cc2)s1 [Reference Example A-69, 2-Amino-N-(5-(4-fluoro-phenoxy)-thiophen-2-ylmethyl)-nicotinamide] was tested, and the MIC was 25 µg/mL (≈ 72.8 µM). For Nc1ncccc1C(=O)NCc1ccc(Oc2ccccc2)s1 [Reference Example A-67, 2-Amino-N-(5-phenoxy-thiophen-2-ylmethyl)-nicotinamide], the MIC was 12.5 µg/mL (≈ 38.4 µM). Nc1ncccc1C(=O)NCc1ccc(Cc2cccc(F)c2)o1 [Reference Example A-6, 2-Amino-N-(5-(3-fluoro-benzyl)-furan-2-ylmethyl)-nicotinamide] was tested, and the MIC was 25 µg/mL (≈ 76.8 µM). CC(=O)c1ccc(C(=O)NCc2ccc(Oc3ccccc3)s2)c(N)n1 [Reference Example A-98, 6-Acetyl-2-amino-N-(5-phenoxy-thiophen-2-ylmethyl)-nicotinamide] was tested, and the MIC was 12.5 µg/mL (≈ 34 µM). Molecule Nc1ncccc1C(=O)NCc1cc(Oc2ccccc2)cs1 [Reference Example A-72, 2-Amino-N-(4-phenoxy-thiophen-2-ylmethyl)-nicotinamide] has an MIC of 12.5 µg/mL (≈ 38.4 µM). COCc1ccc(C(=O)NCc2ccc(Oc3cccc(F)c3)s2)c(N)n1 [Reference Example A-123, 2-Amino-N-(5-(3-fluoro-phenoxy)-thiophen-2-ylmethyl)-6-methoxymethyl-nicotinamide] showed an MIC of 25 µg/mL (≈ 64.5 µM). Molecule CCOCCNc1ccc(C(=O)NCc2ccc(Oc3ccccc3)s2)c(N)n1 [Reference Example A-105, 2-Amino-6-(2-ethoxy-ethylamino)-N-(5-phenoxy-thiophen-2-ylmethyl)-nicotinamide] has an MIC of 25 µg/mL (≈ 60.6 µM). For Nc1ccc(C(=O)NCc2ccc(Oc3ccccc3)s2)c(N)n1 [Reference Example A-54, 2,6-diamino-N-(5-phenoxy-thiophene-2-ylmethyl)-nicotinamide], the MIC was 25 µg/mL (≈ 73.4 µM). Nc1ncccc1C(=O)NCc1ccc(Oc2cccc(Cl)c2)s1 [Reference Example A-73, 2-Amino-N-(5-(3-chloro-phenoxy)-thiophen-2-ylmethyl)-nicotinamide] gave an MIC of 6.25 µg/mL (≈ 17.4 µM). Cc1cccc(Oc2ccc(CNC(=O)c3cccnc3N)s2)c1 [Reference Example A-64, 2-Amino-N-(5-m-tolyloxy-thiophen-2-ylmethyl)-nicotinamide] was tested, and the MIC was 12.5 µg/mL (≈ 36.8 µM). Nc1ncccc1C(=O)NCc1ccc(Cc2cccc(Cl)c2)o1 [Reference Example A-4, 2-Amino-N-(5-(3-chloro-benzyl)-furan-2-ylmethyl)-nicotinamide] gave an MIC of 6.25 µg/mL (≈ 18.3 µM). Molecule CCCCOc1ccc(CNC(=O)c2ccc(COC)nc2N)cc1 [Reference Example A-188, 2-Amino-N-(4-butoxy-benzyl)-6-methoxymethyl-nicotinamide] has an MIC of 6.25 µg/mL (≈ 18.2 µM).
